Experimental findings from patent publication US20240342292A1, “Compounds for the Degradation of EGFR Kinase” (BeiGene Switzerland GmbH, priority 2021, published 2024) are described below.

One experiment concerns Del19/T790M/C797S EGFR. The experiment in a line: EGFR degradation HTRF assay in H1975-clone #28 (DTC) cells. It is filed as cell-based. The conditions noted are these: H1975 # 28 DTC (Del19/T790M/C797S), 16h treatment; for DC50: HTRF; for Dmax (%): maximum percentage of degradation. The method, boiled down: (§1)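 H1975 clones with endogenous EGFR knocked out and lentivirally expressed mutant EGFR treated 16 h at 37 °C with compounds, 8 doses from 10 uM, 5-fold dilutions, 0.2% DMSO. Lysates read by HTRF (665/620 nm) overnight; DC50 from four-parameter fit.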

The next experiment deals with T1, L858R/T790M/C797S EGFR (Homo sapiens, UniProt P00533, C797S/L858R/T790M).
T1 construct: expressed in transfected cells; host or cells: H1975 clone #25 (lentiviral over-expression, endogenous EGFR knocked out by sgRNA)
As to the kind of experiment: EGFR degradation HTRF assay in H1975-clone #25 (LTC) cells. It is filed as cell-based. The conditions noted are these: 16h treatment; for DC50: H1975 # 25-LTC (L858R/T790M/C797S), HTRF; for Dmax: NCI-H1975, H1975 # 25-LTC (L858R/T790M/C797S), maximum percentage of degradation. Put shortly:
as §1
On the technique in general: In TR-FRET formats the signal depends on donor and acceptor labels being close together.

T1 sequence (P00533 25-1210 T790M/C797S/L858R): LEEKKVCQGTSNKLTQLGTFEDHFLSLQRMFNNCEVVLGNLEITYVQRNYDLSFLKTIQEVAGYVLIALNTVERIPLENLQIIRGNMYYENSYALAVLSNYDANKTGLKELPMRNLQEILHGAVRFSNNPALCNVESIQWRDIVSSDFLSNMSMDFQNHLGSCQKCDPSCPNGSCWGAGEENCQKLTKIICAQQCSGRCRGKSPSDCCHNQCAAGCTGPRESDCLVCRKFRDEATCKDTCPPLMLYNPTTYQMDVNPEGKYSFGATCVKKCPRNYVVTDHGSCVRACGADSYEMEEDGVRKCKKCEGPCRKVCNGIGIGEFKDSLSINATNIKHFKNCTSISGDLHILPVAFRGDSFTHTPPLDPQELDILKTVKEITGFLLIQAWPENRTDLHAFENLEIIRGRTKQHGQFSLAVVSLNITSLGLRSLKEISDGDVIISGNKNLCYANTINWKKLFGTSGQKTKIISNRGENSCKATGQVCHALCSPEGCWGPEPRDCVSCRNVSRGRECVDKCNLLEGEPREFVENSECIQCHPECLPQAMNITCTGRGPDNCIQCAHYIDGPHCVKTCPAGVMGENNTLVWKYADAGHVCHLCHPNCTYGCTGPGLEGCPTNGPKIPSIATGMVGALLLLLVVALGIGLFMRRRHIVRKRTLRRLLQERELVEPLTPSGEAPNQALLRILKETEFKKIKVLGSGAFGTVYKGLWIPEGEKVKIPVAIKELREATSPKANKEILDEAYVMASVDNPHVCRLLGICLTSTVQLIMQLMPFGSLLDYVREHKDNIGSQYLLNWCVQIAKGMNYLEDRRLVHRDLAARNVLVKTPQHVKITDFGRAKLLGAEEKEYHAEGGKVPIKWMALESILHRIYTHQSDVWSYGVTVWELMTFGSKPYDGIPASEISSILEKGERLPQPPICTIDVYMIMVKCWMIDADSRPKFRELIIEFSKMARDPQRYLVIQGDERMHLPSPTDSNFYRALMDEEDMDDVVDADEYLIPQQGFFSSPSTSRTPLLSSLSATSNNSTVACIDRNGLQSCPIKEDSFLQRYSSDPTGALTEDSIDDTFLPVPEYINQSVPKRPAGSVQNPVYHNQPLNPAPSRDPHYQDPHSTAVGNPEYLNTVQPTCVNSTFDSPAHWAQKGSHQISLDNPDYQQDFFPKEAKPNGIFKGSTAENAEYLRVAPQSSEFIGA

As for `Cc1cc2cc(n1)-c1cnn(C)c1OCCC[C@@H](C)CN1/C(=N/C2=O)Nc2ccc(C(=O)N3CC[C@@H](NCCc4cc(F)c([C@H]5CCC(=O)NC5=O)c(F)c4)C3)cc21` [Example 296, (R)-3-(2,6-difluoro-4-(2-(((R)-1-((R,E)-1^1,2^6,7-trimethyl-3-oxo-5^2,5^3-dihydro-1^1H,5^1H-11-oxa-4-aza-5(2,1)-benzo[d]imidazola-2(2,4)-pyridina-1(4,5)-pyrazolacycloundecaphane-5′-carbonyl)pyrrolidin-3-yl)amino)ethyl)phenyl)piperidine-2,6-dione], in the experiment on Del19/T790M/C797S EGFR, half-maximal degradation (DC50) was put at 0.842 nM and the “Dmax (%)” value is 51.36%. For the same molecule, on L858R/T790M/C797S EGFR, the DC50 worked out at 0.707 nM and the Dmax was 84.8%.

As for `COC[C@@H]1CN(c2ccc3c(c2)N2C[C@H]4C[C@@H]4CCOc4c(cnn4C)-c4cc(cc(C)n4)C(=O)/N=C/2N3)CCN1C1CCN(c2cc(F)c([C@H]3CCC(=O)NC3=O)c(F)c2)CC1` [Example 468, (R)-3-(4-(4-((S)-4-((7'S,7^2R,E)-1^1,2^6-dimethyl-3-oxo-5^2,5^3-dihydro-1^1H,5^1H-10-oxa-4-aza-5(2,1)-benzo[d]imidazola-2(2,4)-pyridina-1(4,5)-pyrazola-7(1,2)-cyclopropanacyclodecaphane-5^6-yl)-2-(methoxymethyl)piperazin-1-yl)piperidin-1-yl)-2,6-difluorophenyl)piperidine-2,6-dione], in the experiment with Del19/T790M/C797S EGFR, the DC50 stood at 2.25 nM and the “Dmax (%)” value turned out to be 85.54%. Moreover, at L858R/T790M/C797S EGFR, the half-maximal degradation concentration (DC50) came to 2.12 nM and the greatest degradation seen (Dmax) was determined as 88.1%.

`Cc1cc2cc(n1)-c1cnn(C)c1OCCC[C@@H](C)CN1/C(=N/C2=O)Nc2ccc(CN3CC4(C3)CN(C(=O)[C@H]3CN(c5cc(F)c([C@H]6CCC(=O)NC6=O)c(F)c5)CC3(C)C)C4)cc21` [Example 80, (R)-3-(4-((R)-3,3-dimethyl-4-(6-(((R,E)-1^1,2^6,7-trimethyl-3-oxo-5^2,5^3-dihydro-1^1H,5^1H-11-oxa-4-aza-5(2,1)-benzo[d]imidazola-2(2,4)-pyridina-1(4,5)-pyrazolacycloundecaphane-5^6-yl)methyl)-2,6-diazaspiro[3.3]heptane-2-carbonyl)pyrrolidin-1-yl)-2,6-difluorophenyl)piperidine-2,6-dione]: in the experiment with Del19/T790M/C797S EGFR, the DC50 was determined as 0.8 nM and the “Dmax (%)” value is 87.0%. On L858R/T790M/C797S EGFR, this molecule showed a half-maximal degradation concentration (DC50) of 0.8 nM and a Dmax of 87.5%.

With `Cc1cc2cc(n1)-c1cnn(C)c1OCCC[C@@H](C)CN1/C(=N/C2=O)Nc2ccc(CN3CCN(CC4CN(c5cc(F)c([C@H]6CCC(=O)NC6=O)c(F)c5)C4)CC3)cc21` [Example 150, (R)-3-(2,6-difluoro-4-(3-((4-(((R,E)-1^1,2^6,7-trimethyl-3-oxo-5^2,5^1-dihydro-1^1H,5^1H-11-oxa-4-aza-5(2,1)-benzo[d]imidazola-2(2,4)-pyridina-(4,5)-pyrazolacycloundecaphane-5^6-yl)methyl)piperazin-1-yl)methyl)azetidin-1-yl)phenyl)piperidine-2,6-dione], in the experiment on Del19/T790M/C797S EGFR, the DC50 was 2.17 nM and the “Dmax (%)” value came to 79.66%. At L858R/T790M/C797S EGFR, this molecule came in with a DC50 of 0.705 nM and a Dmax of 87.9%.

As to `Cc1cc2cc(n1)-c1cnn(C)c1OCC[C@H]1C[C@@H]1CN1/C(=N/C2=O)Nc2ccc(NC3CN(C4CCN(c5cc(F)c([C@H]6CCC(=O)NC6=O)c(F)c5)CC4)C3)cc21` [Example 455, (R)-3-(4-(4-(3-(((71S,72R,E)-1^1,2^6-dimethyl-3-oxo-5^2,5^3-dihydro-1^1H,5^1H-10-oxa-4-aza-5(2,1)-benzo[d]imidazola-2(2,4)-pyridina-1(4,5)-pyrazola-7(1,2)-cyclopropanacyclodecaphane-5^6-yl)amino)azetidin-1-yl)piperidin-1-yl)-2,6-difluorophenyl)piperidine-2,6-dione], in the experiment on Del19/T790M/C797S EGFR, it took 0.912 nM to reach half-maximal degradation (DC50) and the “Dmax (%)” value amounted to 85.22%. On L858R/T790M/C797S EGFR, this molecule came in with a DC50 of 0.537 nM and a Dmax of 90.8%.

Take `Cc1cc2cc(n1)-c1cnn(C)c1OCCC[C@@H](C)CN1/C(=N/C2=O)Nc2ccc(C3CCN(CC4CCN(c5cc(F)c([C@H]6CCC(=O)NC6=O)c(F)c5)CC4)CC3)cc21` [Example 323, (R)-3-(2,6-difluoro-4-(4-((4-((R,E)-1^1,2^6,7-trimethyl-3-oxo-5^2,5^3-dihydro-1^1H,5^1H-11-oxa-4-aza-5(2,1)-benzo[d]imidazola-2(2,4)-pyridina-1(4,5)-pyrazolacycloundecaphane-5^6-yl)piperidin-1-yl)methyl)piperidin-1-yl)phenyl)piperidine-2,6-dione]: in the experiment on Del19/T790M/C797S EGFR, it took 1.03 nM to reach half-maximal degradation (DC50) and the “Dmax (%)” value was found to be 49.97%. Moreover, at L858R/T790M/C797S EGFR, the DC50 amounted to 1.03 nM and the maximal degradation (Dmax) is 63.9%.

For the molecule `Cc1cc2cc(n1)-c1cnn(C)c1OCCC[C@@H](C)CN1/C(=N/C2=O)Nc2ccc(CN(C)[C@@H]3CCCN(C(=O)[C@@H]4CCN(c5cc(F)c([C@H]6CCC(=O)NC6=O)c(F)c5)C4)C3)cc21` [Example 318, (R)-3-(2,6-difluoro-4-((R)-3-((R)-3-(methyl(((R,E)-1^1,2^6,7-trimethyl-3-oxo-5^2,53-dihydro-1^1H,5^1H-11-oxa-4-aza-5(2,1)-benzo[d]imidazola-2(2,4)-pyridina-1(4,5)-pyrazolacycloundecaphane-5^6-yl)methyl)amino)piperidine-1-carbonyl)pyrrolidin-1-yl)phenyl)piperidine-2,6-dione], in the experiment with Del19/T790M/C797S EGFR, the DC50 was 0.995 nM and the “Dmax (%)” value is on record as 67.67%. At L858R/T790M/C797S EGFR, this molecule returned a DC50 of 1.33 nM and a Dmax of 76.4%.

Regarding `Cc1cc2cc(n1)-c1cnn(C)c1OCCC[C@@H](C)CN1/C(=N/C2=O)Nc2ccc(N3CCN(C(=O)[C@@H]4CN(c5cc(F)c([C@H]6CCC(=O)NC6=O)c(F)c5)CC4(C)C)CC3)cc21` [Example 326, (R)-3-(4-((S)-3,3-dimethyl-4-(4-((R,E)-1^1,2^6,7-trimethyl-3-oxo-5^2,5′-dihydro-1^1H,5^1H-11-oxa-4-aza-5(2,1)-benzo[d]imidazola-2(2,4)-pyridina-1(4,5)-pyrazolacycloundecaphane-5^6-yl)piperazine-1-carbonyl)pyrrolidin-1-yl)-2,6-difluorophenyl)piperidine-2,6-dione], in the experiment on Del19/T790M/C797S EGFR, half-maximal degradation (DC50) was put at 1.71 nM and the “Dmax (%)” value came to 81.61%. Moreover, at L858R/T790M/C797S EGFR, half-maximal degradation (DC50) was put at 1.88 nM and the maximal degradation (Dmax) amounted to 88.9%.

On to `Cc1cc2cc(n1)-c1cnn(C)c1OCCC[C@@H](C)CN1/C(=N/C2=O)Nc2ccc(CN3CCC(N4CCN(C(=O)[C@H]5CCN(c6ccc7c(c6)C(=O)N(C6CCC(=O)NC6=O)C7=O)C5)CC4)CC3)cc21` (stereo partly shown) [Example 216], for which, in the experiment on Del19/T790M/C797S EGFR, the 50% degradation concentration (DC50) was found to be 3.02 nM and the “Dmax (%)” value came out at 82.64%. At L858R/T790M/C797S EGFR, this molecule yielded a 50% degradation concentration (DC50) of 9.55 nM and a Dmax of 81.8%.

Regarding `Cc1cc2cc(n1)-c1cnn(C)c1OCCC[C@@H](C)CN1/C(=N/C2=O)Nc2ccc(C(=O)N3CCN(C4CCN(c5cc(F)c([C@H]6CCC(=O)NC6=O)c(F)c5)CC4)CC3)cc21` [Example 303, (R)-3-(2,6-difluoro-4-(4-(4-((R,E)-1^1,2^6,7-trimethyl-3-oxo-5^2,5^3-dihydro-1^1H,5^1H-11-oxa-4-aza-5(2,1)-benzo[d]imidazola-2(2,4)-pyridina-1(4,5)-pyrazolacycloundecaphane-5^6-carbonyl)piperazin-1-yl)piperidin-1-yl)phenyl)piperidine-2,6-dione], in the experiment with Del19/T790M/C797S EGFR, the half-maximal degradation concentration (DC50) came to 0.246 nM and the “Dmax (%)” value came out at 63.64%. At L858R/T790M/C797S EGFR, this molecule registered a DC50 of 0.582 nM and a Dmax of 80.9%.

Broadly, the DC50 is the concentration giving 50% degradation. Higher therefore signals degradation only at high concentration. The term Dmax denotes the greatest extent of degradation seen.
